Measurements taken from ChEMBL document CHEMBL4425105, “Discovery of (S)-1-(1-(4-Chloro-3-fluorophenyl)-2-hydroxyethyl)-4-(2-((1-methyl-1H-pyrazol-5-yl)amino)pyrimidin-4-yl)pyridin-2(1H)-one (GDC-0994), an Extracellular Signal-Regulated Kinase 1/2 (ERK1/2) Inhibitor in Early Clinical Development” (J Med Chem, 2016).
pIC50: −log10 of the molar value.

Assays:
[1] = Drug metabolism in human hepatocytes assessed as formation of 3-(4-(1-((S)-1-(4-chloro-3-fluorophenyl)-2-hydroxyethyl)-2-oxo-1,2-dihydropyridin-4-yl)pyrimidin-2-ylamino)-5-hydroxypentanoic acid measured after 3 hrs by LC-MS/MS analysis; format: ADME, cell-based, Hepatocyte
[2] = Drug metabolism in rat hepatocytes assessed as formation of 3-(4-(1-((S)-1-(4-chloro-3-fluorophenyl)-2-hydroxyethyl)-2-oxo-1,2-dihydropyridin-4-yl)pyrimidin-2-ylamino)-5-hydroxypentanoic acid measured after 3 hrs by LC-MS/MS analysis; format: ADME, cell-based, Hepatocyte
[3] = Drug metabolism in dog hepatocytes assessed as formation of 3-(4-(1-((S)-1-(4-chloro-3-fluorophenyl)-2-hydroxyethyl)-2-oxo-1,2-dihydropyridin-4-yl)pyrimidin-2-ylamino)-5-hydroxypentanoic acid measured after 3 hrs by LC-MS/MS analysis; format: ADME, cell-based, Canis lupus familiaris, Hepatocyte
[4] = Fraction unbound in mouse plasma; format: ADME, cell-free
Mus musculus [5] = species on record: Mus musculus
Description: In vivo inhibition of p90RSK phosphorylation in mouse xenografted with human HTC116 cells assessed as total plasma concentration required for efficacy

[6] = Drug metabolism in cynomolgus monkey hepatocytes assessed as formation of 3-(4-(1-((S)-1-(4-chloro-3-fluorophenyl)-2-hydroxyethyl)-2-oxo-1,2-dihydropyridin-4-yl)pyrimidin-2-ylamino)-5-hydroxypentanoic acid measured after 3 hrs by LC/MS analysis; format: ADME, cell-based, Macaca fascicularis, Hepatocyte
Mus musculus [7] = assay: T>IC50 for inhibition of p90RSK phosphorylation in CD-1 mouse at 10 mg/kg, po
[8] = Drug metabolism in mouse hepatocytes assessed as formation of 3-(4-(1-((S)-1-(4-chloro-3-fluorophenyl)-2-hydroxyethyl)-2-oxo-1,2-dihydropyridin-4-yl)pyrimidin-2-ylamino)-5-hydroxypentanoic acid measured after 3 hrs by LC-MS/MS analysis; format: ADME, cell-based, Hepatocyte
[9] = Permeability from apical to basolateral side of MDCK cells; format: ADME, cell-based, Canis lupus familiaris; details: dog, read-out: permeability
[10] = molecular target: Mitogen-activated protein kinase 3 (Homo sapiens, UniProt P27361)
Mitogen-activated protein kinase 3, sequence (P27361 whole entry): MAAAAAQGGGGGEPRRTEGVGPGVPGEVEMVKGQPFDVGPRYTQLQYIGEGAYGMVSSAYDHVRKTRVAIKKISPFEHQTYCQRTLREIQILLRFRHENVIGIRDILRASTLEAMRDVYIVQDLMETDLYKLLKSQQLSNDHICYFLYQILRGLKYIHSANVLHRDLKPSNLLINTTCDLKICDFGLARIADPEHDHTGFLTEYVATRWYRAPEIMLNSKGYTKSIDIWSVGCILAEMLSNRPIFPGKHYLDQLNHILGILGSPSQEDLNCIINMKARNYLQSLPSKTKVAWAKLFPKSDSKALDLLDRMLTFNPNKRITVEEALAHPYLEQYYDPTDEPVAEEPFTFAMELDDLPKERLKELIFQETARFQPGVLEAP
Description: Inhibition of ERK1 (unknown origin)

[11] = molecular target: Mitogen-activated protein kinase 1 (Homo sapiens, UniProt P28482)
Mitogen-activated protein kinase 1, sequence (P28482 whole entry): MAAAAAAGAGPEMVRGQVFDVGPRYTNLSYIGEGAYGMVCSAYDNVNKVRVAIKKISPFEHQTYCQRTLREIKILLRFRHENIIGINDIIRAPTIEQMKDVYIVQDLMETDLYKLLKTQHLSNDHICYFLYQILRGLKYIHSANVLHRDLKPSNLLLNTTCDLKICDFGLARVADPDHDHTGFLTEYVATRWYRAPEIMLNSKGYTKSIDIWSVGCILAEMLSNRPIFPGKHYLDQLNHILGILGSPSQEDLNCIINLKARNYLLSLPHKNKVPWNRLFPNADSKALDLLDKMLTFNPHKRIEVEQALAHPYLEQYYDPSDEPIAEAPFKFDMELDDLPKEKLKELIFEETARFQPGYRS
Description: Inhibition of ERK2 (unknown origin)

Cytochrome P450 = assay: Inhibition of CYP450 (unknown origin); format: ADME, protein assay; details: human
HCT-116 = assay: Antitumor activity against human HCT116 cells xenografted in mouse assessed as tumor growth inhibition at 7.5 mg/kg, po qd measured after 21 days relative to vehicle-control; format: functional; details: HCT-116, po, 504 h
in vivo = details: CD-1, mouse, po
Description: Oral bioavailability in CD-1 mouse

Cytochrome P450 3A4 = Cytochrome P450 3A4 (Homo sapiens, UniProt P08684)
Cytochrome P450 3A4, sequence (P08684 whole entry): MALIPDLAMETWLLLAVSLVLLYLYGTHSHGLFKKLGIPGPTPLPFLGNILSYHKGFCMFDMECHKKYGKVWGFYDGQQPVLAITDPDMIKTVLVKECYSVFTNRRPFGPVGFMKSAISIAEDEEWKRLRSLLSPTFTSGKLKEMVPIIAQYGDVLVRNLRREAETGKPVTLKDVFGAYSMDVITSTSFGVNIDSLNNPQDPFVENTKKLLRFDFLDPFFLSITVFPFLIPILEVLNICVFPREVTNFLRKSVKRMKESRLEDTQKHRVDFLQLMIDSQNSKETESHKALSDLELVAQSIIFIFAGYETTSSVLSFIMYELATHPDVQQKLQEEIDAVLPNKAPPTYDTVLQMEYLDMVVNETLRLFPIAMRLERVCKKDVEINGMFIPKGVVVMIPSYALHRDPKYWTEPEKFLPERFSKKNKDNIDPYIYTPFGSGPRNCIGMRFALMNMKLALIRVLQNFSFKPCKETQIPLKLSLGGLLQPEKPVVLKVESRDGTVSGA
Description: Inhibition of CYP3A4 (unknown origin)

[12] = Drug level in dog hepatocytes treated with (S)-1-(1-(4-chloro-3-fluorophenyl)-2-hydroxyethyl)-4-(2-(tetrahydro-2H-pyran-4-ylamino)pyrimidin-4-yl)pyridin-2(1H)-one measured after 3 hrs by LC/MS analysis; format: ADME, cell-based, Canis lupus familiaris, Hepatocyte
[13] = Drug level in cynomolgus monkey hepatocytes treated with (S)-1-(1-(4-chloro-3-fluorophenyl)-2-hydroxyethyl)-4-(2-(tetrahydro-2H-pyran-4-ylamino)pyrimidin-4-yl)pyridin-2(1H)-one measured after 3 hrs by LC/MS analysis; format: ADME, cell-based, Macaca fascicularis, Hepatocyte
[14] = Drug level in mouse hepatocytes treated with (S)-1-(1-(4-chloro-3-fluorophenyl)-2-hydroxyethyl)-4-(2-(tetrahydro-2H-pyran-4-ylamino)pyrimidin-4-yl)pyridin-2(1H)-one measured after 3 hrs by LC/MS analysis; format: ADME, cell-based, Hepatocyte
[15] = Drug level in rat hepatocytes treated with (S)-1-(1-(4-chloro-3-fluorophenyl)-2-hydroxyethyl)-4-(2-(tetrahydro-2H-pyran-4-ylamino)pyrimidin-4-yl)pyridin-2(1H)-one measured after 3 hrs by LC/MS analysis; format: ADME, cell-based, Hepatocyte
[16] = Drug level in human hepatocytes treated with (S)-1-(1-(4-chloro-3-fluorophenyl)-2-hydroxyethyl)-4-(2-(tetrahydro-2H-pyran-4-ylamino)pyrimidin-4-yl)pyridin-2(1H)-one measured after 3 hrs by LC/MS analysis; format: ADME, cell-based, Hepatocyte

| SMILES | pIC50 [10] | pIC50 [11] | inhibition (INH) (Cytochrome P450) | also measured |
| --- | --- | --- | --- | --- |
| O=c1cc(-c2ccnc(NC3CCOCC3)n2)ccn1[C@H](CO)c1ccc(Cl)c(F)c1 | – | – | – | Drug metabolism [1]: Metabolite_Detected; Drug metabolism [2]: Metabolite_Detected; Drug metabolism [3]: Metabolite_Detected; fraction unbound [4]: 0.058; Cp (Mus musculus [5]): 200 nM; Drug metabolism [6]: Metabolite_Detected; Time (Mus musculus [7]): 8 h; Drug metabolism [8]: Metabolite_Detected; Papp A→B [9]: 3.9 ×10⁻⁶ cm/s |
| O=C(c1ccc(F)c(F)c1Nc1ccc(I)cc1F)N1CC(O)([C@@H]2CCCCN2)C1 [COBIMETINIB] | – | – | – | inhibition in vivo at 7.5 mg/kg (HCT-116): 58% |
| Cc1cnn(C)c1Nc1nccc(-c2ccn([C@H](CO)c3ccc(Cl)c(F)c3)c(=O)c2)n1 | 5.97 | 6.31 | – | – |
| Cn1nc(C(F)(F)F)cc1Nc1nccc(-c2ccn([C@H](CO)c3ccc(Cl)c(F)c3)c(=O)c2)n1 | 7.13 | 7.28 | – | – |
| Cc1n[nH]c(C)c1Nc1nccc(-c2ccn([C@H](CO)c3ccc(Cl)c(F)c3)c(=O)c2)n1 | 6.29 | 6.62 | Not Active | – |
| O=c1cc(-c2ccnc(Nc3cc[nH]n3)n2)ccn1[C@H](CO)c1ccc(Cl)c(F)c1 | 5.02 | 5.25 | – | – |
| Cn1cc(Nc2nccc(-c3ccn([C@H](CO)c4ccc(Cl)c(F)c4)c(=O)c3)n2)c(C(F)(F)F)n1 | 6.26 | 6.54 | Not Active | – |
| Cn1ccc(Nc2nccc(-c3ccn([C@H](CO)c4ccc(Cl)c(F)c4)c(=O)c3)n2)n1 | 7.07 | 7.43 | – | – |
| O=C(O)CC(CCO)Nc1nccc(-c2ccn([C@H](CO)c3ccc(Cl)c(F)c3)c(=O)c2)n1 (some centres not stated) | – | – | – | Drug metabolism [12]: Metabolite_Detected; Drug metabolism [13]: Metabolite_Detected; Drug metabolism [14]: Metabolite_Detected; Drug metabolism [15]: Metabolite_Detected; Drug metabolism [16]: Metabolite_Detected |
| CCn1nc(C)cc1Nc1nccc(-c2ccn([C@H](CO)c3ccc(Cl)c(F)c3)c(=O)c2)n1 | 6.82 | 7.05 | – | – |

More lines, in order of rising pIC50 [10], values ahead:

| pIC50 [10] | pIC50 [11] | inhibition (INH) (Cytochrome P450) | SMILES | also measured |
| --- | --- | --- | --- | --- |
| 7.21 | 7.54 | Not Active | Cc1c(Nc2nccc(-c3ccn([C@H](CO)c4ccc(Cl)c(F)c4)c(=O)c3)n2)cnn1C | – |
| 7.37 | 7.64 | Not Active | CCc1nn(C)cc1Nc1nccc(-c2ccn([C@H](CO)c3ccc(Cl)c(F)c3)c(=O)c2)n1 | – |
| 7.57 | 7.77 | – | CCc1cc(Nc2nccc(-c3ccn([C@H](CO)c4ccc(Cl)c(F)c4)c(=O)c3)n2)n(C)n1 | – |
| 7.59 | 7.80 | – | CCn1nccc1Nc1nccc(-c2ccn([C@H](CO)c3ccc(Cl)c(F)c3)c(=O)c2)n1 | – |
| 7.70 | – | – | Cc1cc(Nc2nccc(-c3ccn([C@H](CO)c4ccc(Cl)c(F)c4)c(=O)c3)n2)n(C)n1 | – |
| 7.72 | 8.00 | Not Active | CC(C)n1cc(Nc2nccc(-c3ccn([C@H](CO)c4ccc(Cl)c(F)c4)c(=O)c3)n2)cn1 | – |
| 7.74 | – | Not Active | CCn1cc(Nc2nccc(-c3ccn([C@H](CO)c4ccc(Cl)c(F)c4)c(=O)c3)n2)c(C)n1 | – |
| 7.89 | – | Not Active | Cc1nn(C)cc1Nc1nccc(-c2ccn([C@H](CO)c3ccc(Cl)c(F)c3)c(=O)c2)n1 | bioavailability (in vivo): 95% |
| 8.10 | 8.39 | Not Active | Cn1cc(Nc2nccc(-c3ccn([C@H](CO)c4ccc(Cl)c(F)c4)c(=O)c3)n2)cn1 | – |
| 8.30 | 8.74 | Not Active | CCn1cc(Nc2nccc(-c3ccn([C@H](CO)c4ccc(Cl)c(F)c4)c(=O)c3)n2)cn1 | – |
| 8.41 | 9.03 | – | Cc1cc(Nc2nccc(-c3ccn([C@H](CO)c4ccc(Cl)c(F)c4)c(=O)c3)n2)ccn1 | pIC50 (Cytochrome P450 3A4): 6.47 |
| 8.42 | 9.05 | Not Active | Cc1n[nH]cc1Nc1nccc(-c2ccn([C@H](CO)c3ccc(Cl)c(F)c3)c(=O)c2)n1 | – |
